Patent publication US12043602B2, “Fendiline derivatives” (The Board of Regents of the University of Texas System, priority 2019, dated 2024)
Read-outs that look alike come from different tables or passages of the source.

Legend:
[1] = test system: BxPC-3 (WT) pancreatic tumor cells; test: CyQUANT proliferation assay; type: cell-based; details: Homo sapiens
Method: (§1) Madine Darby Canine Kidney epithelial cells (MDCK) stably co-expressing mGFP-tagged full length oncogenic mutant K-Ras (GFP—K-RASG12V) or mGFP-LactC2 (peptide probe for phosphatidylserine) and mCherry-tagged to the amino acids 179-189 of H-RasC181S, C184S (mCherry-CAAX, localizes primarily to endomembranes) were grown in DMEM-high glucose/sodium pyruvate/10% FBS. The medium was supplemented with 1× Penicillin/Streptomycin for fluorescence microscopy assays, to avoid any microbial contamination from the test compounds added. KLE and Hec50 cells were maintained in DMEM-F-12 medium supplemented with 10% FBS. Hec-1A and Hec-1B cells were grown in McCoy's 5a medium supplemented with 10% FBS. ESS-1 cells were grown in RPMI 1640 medium supplemented with 20% FBS. MPanc96 cells were grown in DMEM supplemented with 10% FBS, MiaPaCa-2 cells in DMEM supplemented with 10% FBS and 2.5% horse serum and all other cell lines were grown in RPMI 1640 supplemented with 10% FBS. All cancer cell media were supplemented with ×Penicillin/Streptomycin. All cell lines were grown at 37° C. with 5% CO2.
(§2) Cells were seeded in 96-well plates. After 24 h, fresh growth medium supplemented with 0.1% vehicle (DMSO), or various concentrations of drugs was added and cells were grown for 72 h. Cell numbers were quantified using the CyQUANT® Cell Proliferation Assay Kit (Molecular Probes, Life Technologies), according to the manufacturer's protocol. Fluorescence measurement was used as a measure of live cell number.

[2] = test system: MiaPaCa-2 (Mut) pancreatic tumor cells; test: CyQUANT proliferation assay; type: cell-based; details: Homo sapiens
Method: as §1, §2

[3] = test system: MOH (Mut) pancreatic tumor cells; test: CyQUANT proliferation assay; type: cell-based
Method: as §1, §2

[4] = test system: MPanc96 (Mut) pancreatic tumor cells; test: CyQUANT proliferation assay; type: cell-based
Method: as §1, §2

[5] = test system: CaCO-2 (WT) colon tumor cells; test: CyQUANT proliferation assay; type: cell-based; details: Homo sapiens
Method: as §1, §2

[6] = test system: Hec1A (Mut) endometrial tumor cells; test: CyQUANT proliferation assay; type: cell-based; details: Homo sapiens, HEC-1-A
Method: as §1, §2

[7] = test system: Hec1B (Mut) endometrial tumor cells; test: CyQUANT proliferation assay; type: cell-based; details: Homo sapiens, HEC-1B
Method: as §1, §2

[8] = test system: NCI-H1299 (WT) lung tumor cells; test: CyQUANT proliferation assay; type: cell-based; details: Homo sapiens
Method: as §1, §2

[9] = test system: SK-CO-1 (Mut) colon tumor cells; test: CyQUANT proliferation assay; type: cell-based; details: Homo sapiens
Method: as §1, §2

[10] = test system: ESS-1 (WT) endometrial tumor cells; test: CyQUANT proliferation assay; type: cell-based; design: key: NE—Not efficacious; details: 72 h
Method: as §1, §2

[11] = test system: KLE (WT) endometrial tumor cells; test: CyQUANT proliferation assay; type: cell-based; design: key: NE—Not efficacious; details: 72 h
Method: as §1, §2

[12] = test system: sphingomyelin (SM) in MiaPaCa-2 tumor sections; test: Lysenin (GFP-Lys) staining of tumor sections; type: in vivo, nu/nu mice; details: 12.5 mg/kg
Method: Lysenin Staining of Tumor Sections. To label intracellular SM, 3 μm thick cryosections, fixed in 4% paraformaldehyde and quenched in 0.1 M NH4Cl, were permeabilized with 0.5% saponin before overnight incubation (4° C.) with MBP-GFP Lysenin (50 μg/mL) in PBS with 0.5% saponin containing DAPI (5 ng/mL). Samples mounted in FluorSave were photographed in the Nikon AIR Confocal Laser Microscope. GFP-Lysenin binding was quantitated using NIS
Elements BR analysis ver. 4.13.04. The average value obtained in the negative control pictures (background) was subtracted from each of the GFP pictures (n=20).
To determine if the reduction in tumor growth elicited by the compounds were mediated by inhibition of ASM, we stained the tissue sections for SM using a non-toxic recombinant fragment of lysenin tagged with GFP (GFP-Lys). In DMSO-treated tumor sections, weak GFP-Lys staining was observed. […] We also observed that the blood vessels were dilated in compound 6 treated tumors, whereas the blood vessel diameters were not changed in compound 12h (NY0331) and 22 (NY0335) treated tumors (FIG. 8E).

[13] = test system: MDCK cells co-expressing GFP-K-RASG12V and mCherry-CAAX; test: Cytotoxicity in mislocalization screen (death of all cells in well); details: drug caused death of all cells in well at 30 μM
[14] = BXPC-3, 72 h, read-out: IC50 proliferation BxPC-3 (WT)
[15] = BXPC-3, Table 11, pancreatic, read-out: IC50 (μM) BxPC-3 (WT)
[16] = MIA PaCa-2, 72 h, read-out: IC50 proliferation MiaPaCa-2 (Mut)
[17] = MIA PaCa-2, Table 11, pancreatic, read-out: IC50 (μM) MiaPaCa-2 (Mut)
[18] = 72 h, read-out: IC50 proliferation MOH (Mut)
[19] = Table 11, pancreatic, read-out: IC50 (μM) MOH (Mut)
[20] = MPANC96, 72 h, read-out: IC50 proliferation MPanc96 (Mut)
[21] = MPANC96, Table 11, pancreatic, read-out: IC50 (μM) MPanc96 (Mut)
[22] = Caco-2, 72 h, read-out: IC50 proliferation CaCO-2 (WT)
[23] = Caco-2, Table 11, colon, read-out: IC50 (μM) Caco-2 (WT)
[24] = 72 h, read-out: IC50 proliferation Hec1A (Mut)
[25] = Table 11, endometrial, read-out: IC50 (μM) Hec1A (Mut)
[26] = 72 h, read-out: IC50 proliferation Hec1B (Mut)
[27] = Table 11, endometrial, read-out: IC50 (μM) Hec1B (Mut)
[28] = NCI-H1299, 72 h, read-out: IC50 proliferation NCI-H1299 (WT; N Mut in Table 6)
[29] = NCI-H1299, Table 11, lung, read-out: IC50 (μM) NCI H1299 (WT)
[30] = SK-CO-1, 72 h, read-out: IC50 proliferation SK-CO-1 (Mut)
[31] = SK-CO-1, Table 11, colon, read-out: IC50 (μM) SK-CO-1 (Mut)

SMILES | IC50 [1, 14] [µM] | IC50 [1, 15] [µM] | IC50 [2, 16] [µM] | IC50 [2, 17] [µM] | IC50 [3, 18] [µM] | IC50 [3, 19] [µM] | IC50 [4, 20] [µM] | IC50 [4, 21] [µM] | IC50 [5, 22] [µM] | IC50 [5, 23] [µM] | IC50 [6, 24] [µM] | IC50 [6, 25] [µM] | IC50 [7, 26] [µM] | IC50 [7, 27] [µM] | IC50 [8, 28] [µM] | IC50 [8, 29] [µM] | IC50 [9, 30] [µM] | IC50 [9, 31] [µM] | IC50 proliferation ESS-1 (WT) [10] | IC50 proliferation KLE (WT) [11] | further results
CC(NCCC(c1ccccc1)c1ccccc1)c1ccccc1 (stereo not drawn) [Fendiline] | 28.6 | 28.6 ± 5.9 | 9.17 | 9.2 ± 0.6 | 11.1 | 11.1 | 10.8 | 10.8 | 15.4 | 14.5 | 9.48 | 9.48 | 9.8 | 9.8 | 24.2 | 24.3 ± 2.1 | 7.77 | 7.8 | NE | NE | GFP-Lys staining (SM) of tumor sections [12]: significantly increased
COc1ccc([C@@H](C)N(CC=C(c2ccccc2)c2ccccc2)CCN2CCN(C)CC2)cc1 [NY0244, (R)-N-(1-(4-methoxyphenyl)ethyl)-N-(2-(4-methylpiperazin-1-yl)ethyl)-3,3-diphenylprop-2-en-1-amine] | 5.73 | 5.7 | 3.03 | 3 | 3.67 | 3.7 | 4.22 | 4.2 | 5.1 | 5.1 | 2.6 | 2.6 | 3.28 | 3.3 | 8.24 | 8.2 | 3.28 | 3.3 | NE | NE | Cytotoxic at 30 μM [13]: Yes
COc1ccc([C@@H](C)N(CC=C(c2ccccc2)c2ccccc2)CCN2CCCC2)cc1 [NY0331, (R)-N-(1-(4-methoxyphenyl)ethyl)-3,3-diphenyl-N-(2-(pyrrolidin-1-yl)ethyl)prop-2-en-1-amine] |  |  | 3.36 | 3.1 | 3.55 | 4 | 3.81 | 3.8 |  |  |  |  |  |  |  |  |  |  |  |  | GFP-Lys staining (SM) of tumor sections [12]: significantly increased; Cytotoxic at 30 μM [13]: Yes
COc1ccc([C@@H](C)N(CC=C(c2ccccc2)c2ccccc2)CCCN2CCN(C)CC2)cc1 [NY0335, (R)-N-(1-(4-methoxyphenyl)ethyl)-N-(3-(4-methylpiperazin-1-yl)propyl)-3,3-diphenylprop-2-en-1-amine] | 5.34 | 5.3 | 2.79 | 2.8 | 3.77 | 3.8 | 4.18 | 4.2 | 4.43 | 4.4 | 2.34 | 2.3 | 3.89 | 3.9 | 8.12 | 8.2 ± 1 | 3.52 | 3.5 | NE | NE | GFP-Lys staining (SM) of tumor sections [12]: did not enhance GFP-Lys staining; Cytotoxic at 30 μM [13]: Yes
